Laboratory results taken from patent US20090170886A1 (Pfizer Inc, priority 2005, published 2009).
Substitutions are numbered along the chain they refer to. Where two headings read alike, the source gives them in different places.

Experiments:
spinal BMD = settings: after 7 years of treatment; cited from earlier work
[1] = biological target: T1, hAR (human androgen receptor, baculovirus/Sf9 generated extracts) (Homo sapiens, UniProt P10275); experiment: AR Binding Assay (competitive binding with 3H-DHT tracer); settings: 1 nM 3H-DHT, one hour at 4° C., mean of multiple tests
T1 construct: made in house; host or cells: baculovirus/Sf9 insect cells (crude extract)
T1 sequence (P10275 1-920): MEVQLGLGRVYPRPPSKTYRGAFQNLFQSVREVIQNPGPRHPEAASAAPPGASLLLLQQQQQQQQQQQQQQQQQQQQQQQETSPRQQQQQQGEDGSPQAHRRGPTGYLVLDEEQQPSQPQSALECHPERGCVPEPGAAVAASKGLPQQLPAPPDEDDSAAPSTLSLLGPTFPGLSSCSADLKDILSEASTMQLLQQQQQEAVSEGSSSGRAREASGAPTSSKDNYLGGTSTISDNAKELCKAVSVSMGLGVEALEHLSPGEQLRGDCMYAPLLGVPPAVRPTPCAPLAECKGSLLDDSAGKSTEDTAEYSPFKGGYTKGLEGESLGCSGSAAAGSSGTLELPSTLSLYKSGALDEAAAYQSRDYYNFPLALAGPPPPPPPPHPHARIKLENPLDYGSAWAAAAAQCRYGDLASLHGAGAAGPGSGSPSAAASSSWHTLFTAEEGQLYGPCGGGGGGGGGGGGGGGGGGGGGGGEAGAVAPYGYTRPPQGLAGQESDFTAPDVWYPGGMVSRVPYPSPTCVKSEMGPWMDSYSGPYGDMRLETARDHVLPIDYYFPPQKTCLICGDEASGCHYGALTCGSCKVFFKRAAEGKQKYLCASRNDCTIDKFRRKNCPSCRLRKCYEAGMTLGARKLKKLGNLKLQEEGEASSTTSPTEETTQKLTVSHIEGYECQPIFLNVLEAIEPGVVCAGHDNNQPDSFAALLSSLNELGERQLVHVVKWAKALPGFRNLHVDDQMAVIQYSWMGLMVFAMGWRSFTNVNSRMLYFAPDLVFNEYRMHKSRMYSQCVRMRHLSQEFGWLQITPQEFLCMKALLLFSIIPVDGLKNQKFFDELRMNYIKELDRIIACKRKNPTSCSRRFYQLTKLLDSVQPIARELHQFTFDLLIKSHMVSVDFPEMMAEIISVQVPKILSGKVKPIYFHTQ
Procedure, shortened: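 Compounds at decreasing concentrations were incubated with baculovirus/Sf9 hAR extract, hydroxylapatite and 1 nM ^3H-DHT for one hour at 4° C., then washed three times. The value is the compound concentration inhibiting half of maximum ^3H-DHT binding, reported as the mean of multiple tests.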

[2] = biological target: T2, androgen receptor in MDA-MB453-MMTV clone 54-19 cells (Homo sapiens, UniProt P10275); experiment: AR Antagonist Cell Assay (MMTV-luciferase reporter, DHT-induced); format: cell-based; settings: MDA-MB453-MMTV clone 54-19, 100 pM DHT, 17 hr; mean of multiple tests
T2 sequence (P10275 1-920 Q868H): T1 sequence (P10275 1-920) with Q868H
Procedure, shortened: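 MDA-MB453 cells stably carrying an ARE-containing MMTV-luciferase reporter, in phenol red-free medium with 1% charcoal-treated serum, preincubated 30 min with compound (0.32-1000 nM), then stimulated with 100 pM DHT for 17 h at 37 °C. Luminescence read; percent inhibition of DHT fold induction.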

[3] = hAR extract, read-out: AR Binding IC50

In the case of NCCCC(O)(P(=O)(O)O)P(=O)(O)O [alendronate], the “increase in spinal BMD” value (spinal BMD) is given as ≤ 11%.
Cc1cccc(COc2ccc(C#N)cc2Cl)c1 [Example 40, 3-Chloro-4-(3-methyl-benzyloxy)-benzonitrile] gave a melting point of 73 to 75 °C and an IC50 [1, 3] of 783 nM.
With Cc1cccc(COc2ccc(C#N)c(Cl)c2)c1 [Example 64, 2-Chloro-4-(3-methyl-benzyloxy)-benzonitrile] the IC50 ([1]; AR Binding IC50, hAR extract) was 74 nM and the IC50 [2] was > 1000 nM.
In the case of COc1ccccc1COc1ccc(C#N)c(Cl)c1 [Example 67, 2-Chloro-4-(2-methoxy-benzyloxy)-benzonitrile], the IC50 ([1]; AR Binding IC50, hAR extract) is reported as 99 nM and the IC50 [2] is reported as 166 nM.
For Cc1ccccc1COc1ccc(C#N)c(Cl)c1 [Example 65, 2-Chloro-4-(2-methyl-benzyloxy)-benzonitrile], the IC50 [1, 3] was 129 nM and the IC50 [2] was > 1000 nM.
With CCC(Oc1ccc(C#N)c(C(F)(F)F)c1)c1ccccc1 (stereo not drawn) [Example 48, 4-(1-Phenyl-propoxy)-2-trifluoromethyl-benzonitrile] the IC50 ([1]; AR Binding IC50, hAR extract) was 38 nM and the IC50 [2] was 345 nM.
In the case of N#Cc1ccc(OCC2COc3ccccc3O2)cc1Cl (stereo not drawn) [Example 69, 2-Chloro-4-(2,3-dihydro-benzo[1,4]dioxin-2-ylmethoxy)-benzonitrile], the IC50 [1, 3] is reported as 108 nM and the IC50 [2] is reported as > 1000 nM.
With COc1ccccc1C(C)Oc1ccc(C#N)c(C(F)(F)F)c1 (stereo not drawn) [Example 5, 4-[1-(2-Methoxy-phenyl)-ethoxy]-2-t-trifluoromethyl-benzonitrile] the IC50 [1, 3] was 312 nM and the IC50 [2] was > 1000 nM.
With CCCC(Oc1ccc(C#N)c(C(F)(F)F)c1)c1cncc(OCOCCOC)c1 (stereo not drawn) [Example 92] the IC50 ([1]; AR Binding IC50, hAR extract) was 74 nM and the IC50 [2] was > 934 nM.
In the case of CCC(C)(Oc1ccc(C#N)c(Cl)c1)c1ccccc1 (stereo not drawn) [Example 58, 2-Chloro-4-(1-methyl-1-phenyl-propoxy)-benzonitrile], the IC50 [1, 3] is reported as 162 nM and the IC50 [2] is reported as > 1000 nM.
C[C@H](Oc1ccc(C#N)c(C(F)(F)F)c1)c1ccccc1 [Example 2, (S)-4-(1-Phenyl-ethoxy)-2-trifluoromethyl-benzonitrile] gave an IC50 ([1]; AR Binding IC50, hAR extract) of 13 nM and an IC50 [2] of 381 nM.
In the case of CC(Oc1ccc(C#N)c(C(F)(F)F)c1)c1cncc(O)c1 (stereo not drawn) [Example 73, 4-[1-(5-Hydroxypyridin-3-yl)ethoxy]-2-(trifluoromethyl)benzonitrile], the IC50 [1, 3] is reported as 110 nM and the IC50 [2] is reported as 70 nM.
With CC(Oc1ccc(C#N)c(C(F)(F)F)c1)c1cccnc1 (racemic) [Example 33, 4-(1-Pyridin-3-yl-ethoxy)-2-trifluoromethyl-benzonitrile] the IC50 ([1]; AR Binding IC50, hAR extract) was 192 nM and the IC50 [2] was 63 nM.
COCCOCOc1cncc(C(CC(C)C)Oc2ccc(C#N)c(C(F)(F)F)c2)c1 (stereo not drawn) [Example 93, 4-{1-[5-(2-Methoxy-ethoxymethoxy)-pyridin-3-yl]-3-methyl-butoxy}-2-trifluoromethyl-benzonitrile] gave an IC50 ([1]; AR Binding IC50, hAR extract) of 98 nM and an IC50 [2] of 202 nM.
